Consider 1 compound from patent publication EP4610267A1, “CYCLIC DINUCLEOTIDES AND CONJUGATES THEREOF WITH ANTIBODIES” (priority 2024, dated 2025).

Usually EC50 stands for the midpoint of the concentration-response curve. Lower therefore signals a more potent agent.

For assay [1], the system named is 293T WT STING reporter cells expressing TROP2. Briefly: 293T WT STING reporter cells transiently expressing TROP2, luciferase. The following applies: free Warhead CDN, no antibody; TROP2+ 293T reporter cells. The format is cell-based. The protocol: HCC1954 and 293T reporter cells were cultured as previously described. HCC1954 cells, which naturally express both Her2 and TROP2, were seeded into collagen-coated 96-well plates at a density of 0.5×10^6 cells/ml (100 µl/well) in RPMI medium supplemented with 10% FBS and Penicillin/Streptomycin. The following day, the medium was completely removed, and serial dilutions of mAb2-CDN and mAb5-CDN conjugates in medium were added to the wells. Levels of the STING-dependent cytokine IP10 (CXCL10) induction were determined in the medium using ProcartaPlex Immunoassays after 24 hours of incubation following the manufacturer's protocol and measured on a MagPix instrument. […] Nonlinear regression curve fitting was applied for EC50 value calculations. The EC50 value represents the concentration of the payload CDN 2.2 conjugated to anti-Her2 mAb2 or anti-TROP2 mAb5 that results in half-maximal levels of IP-10. […] A 50 µL mixture was transferred to white 96-well plates, and luminescence was measured using a TECAN reader.
EC50 values were calculated from an 8-point dose-response curve using GraphPad Prism (La Jolla, USA) with nonlinear regression curve fitting. The EC50 represents the concentration of the payload CDN 2.2 conjugated to anti-Her2 mAb2 or anti-TROP2 mAb5 that results in half-maximal levels of luminescence.

Assay [2] relates to Her2 expressing HCC1954 breast tumor xenograft. Briefly: Her2 expressing HCC1954 breast tumor xenograft model. As to conditions: single i.v. dose 1.7 mg/kg (40x higher payload dose than in 2.5 mg/kg mAb3-3.3) (Fig. 8). The format is in vivo, SCID-beige mice. On the procedure:
For in vivo testing in the Her2 expressing HCC1954 breast cancer xenograft mouse model, female SCID-beige mice at 8 to 12 weeks of age (purchased from Charles River Lab) were used for implantation. HCC1954 cells (obtained from ATCC) were cultured in RPMI medium supplemented with 10% fetal bovine serum at 37°C in a humidified incubator with 5% CO2 On the day of implantation, 1 × 10^7 HCC1954 cells were re-suspended in 100µL RPMI1640 serum free media containing 50% Matrigel and implanted subcutaneously in the right flank. After implant, tumors were measured by caliper and mice were weighed two times per week once tumors were palpable. Tumor volumes were calculated from caliper measurements using formula (L × W^2)/2. Animals were pair matched when tumor reached volume 100 - 150 mm^3 (designated as day 1). Two i.v. injections were performed on day 1 and 8 (D1 and D8) of 5mg/kg of anti-Her2 mAbl-3.4 (DAR 3.9), 5mg/kg mAbl-3.11 (DAR 3.9), 5mg/kg isotype mAb-3.4 (DAR 3.9), 5mg/kg anti-Her2 mAb1 or PBS vehicle. […]
Compound 3.13 was conjugated to engineered light chain C110 and heavy chain C375 of anti-Her2 mAb (mAb3) as described above. […] After implant, tumors were measured by caliper and mice were weighed two times per week once tumors were palpable. Tumors were measured in two dimensions and tumor volumes were calculated from caliper measurements using formula (L × W^2)/2. […]

`Nc1ncnc2c1ncn2[C@@H]1O[C@@H]2OCP(=O)(S)O[C@@H]3[C@H](F)[C@@H](COP(=O)(S)OC[C@H]2[C@H]1F)O[C@H]3n1cnc2c(=O)[nH]cnc21` (single isomer, unassigned) [Compound 2.2]: the EC50 in assay [1] turned out to be 700 nM. Besides, the “effect on HCC1954 tumors” value in assay [2] is given as “only triggered tumor growth inhibition”.
